Source: US9365851B2, “Spalt-like transcription factor 4 (SALL4) and uses thereof” (National University of Singapore, priority 2011, dated 2016)
Entries after “also recorded” stand apart in the source; their conditions may differ.

Key:
SNU-387 cells = assay: Cell viability assay (MTT/MTS); assay type: cell-based, human; conditions: for cell viability / number of viable cells: SNU-387 (low/no SALL4), 72 h
Experimental: (§1) Cell viability was determined 72 hours after peptide treatments. Absorbance at 490 nm is directly correlated to cell viability. Wild type functional SALL4 peptide (wt), mutant non-functional SALL4 peptide (Mut.), trichostatin A (TSA), scrambled control peptide (Scr.), wild type peptide+PTEN inhibitor SF1670 (wt+Inh.) were given to the cells at the indicated concentration. PTEN inhibitor concentration was 400 nM. (31C, 31D) Western blot analyses of the effects of peptides on PTEN, AKT, and pAKT expression on SNU-398 (31C) and SNU-387 (31D) cells 72 hours following peptide treatments. 20 μM of wt or Scr. peptide or 100 nM of TSA was used. PTEN inhibitor concentration was 400 nM. (31E) Representative images show NOD/SCID mice transplanted with Scr peptide- and wt peptide-treated SNU-398 cells (left) and the dissected subcutaneous tumors (right). Arrow indicates subcutaneous tumor. (31F) Growth curve of subcutaneous tumors (left panel) and tumor weight of tumors dissected at day 26 post-transplantation (right panel). Results are mean±s.d. n=5; * P<0.05. (31G) Representative images show NOD/SCID mice transplanted with 3 million SNU-398 cells at the left flank and treated intraperitoneally for five consecutive days with 56 mg/kg body weight TAT-Mut. peptide or 60 mg/kg body weight wt peptide (top panel) and the dissected subcutaneous tumors (bottom). (31H) Tumor weight of tumors dissected at day 18 post-transplantation and post-treatment of mice treated intraperitoneally with TAT fusion peptides as described in 5 g. Results are mean±s.d. n=5; * P<0.05.
(§2) Cell viability assay (MTT) (Invitrogen) was performed according to the manufacturer's instructions. Briefly—10000 cells were seeded in 100 ul medium in 96 well plates. The next day cells were treated as indicated on the figures. At the designated time after the treatment 20 ul of 5 mg/ml MTT solution was added to each well. After 3.5 h incubation at 37 C the medium was removed and the reaction was terminated with a solution of 4 mM HCl, 0.1% Nondet P-40 (NP40) all in isopropanol in dark on orbital shaker for […]. at room temperature. The absorbance was read at 590 nm with a reference filter of 620 nm in Spectromax M3 (ABI) spectrophotometer.
7000 cells were seeded in each wells of a microtiter plate in 100 μL of complete medium. Cells from each treatment were seeded in duplicate. Controls using the same medium without cells were set up in parallel. At various time points, 317 μg/mL of 3-(4,5-dimethylthiazol-2-yl)-5-(3-carboxymethoxyphenyl)-2-(4-sulfophenyl)-2H-tetrazolium (CellTiter96® AQueous One Solution Cell Proliferation Assay, Promega) was added to each well. After four hours incubation of the tetrazolium salt, absorbance at 490 nm was read by a microplate reader.

HL-60 cells = assay: Cell viability assay (MTT/MTS); assay type: cell-based, human; conditions: HL-60, 48-72 h
Experimental: FIG. 17: SALL4 peptide reduces the viability of leukemic HL-60 cells. HL60 human acute promyelocytic leukemia cells (ATCC), were cultured in RPMI medium with 10% FBS (Invitrogen). 5000 cells/well were seeded in 96 well plate. Peptides: MSRRKQAKPQHI-wt (SEQ ID NO: 1) and MSRRAQAKPQHI-mutant (SEQ ID NO: 6) were synthesized by Biosynthesis Inc. to 85% purity. Peptides and TSA were re-suspended in PBS and added to the final concentration as indicated. WT peptide was re-added 24 hours after the initial addition as indicated. Experiment was performed in triplicate. MTS assay was performed by adding 20 ul of the CellTiter 96® AQueous One Solution Reagent (Promega) directly to the cells in medium, incubating for 2 hours and then recording absorbance at 490 nm with a 96-well plate reader. The quantity of formazan product as measured by the amount of 490 nm absorbance is directly proportional to the number of living cells in culture.
as §2
Multiple cell lines with or without SALL4 expression were chosen to test the biological effect(s) of this wt peptide. Wt or its control (Scr or Mut) peptide was delivered into tumor cells at various concentrations, and their effects on cells were evaluated at 48 or 72 hours post treatment by a MTT assay (Manufacture name). […] Since, as proposed herein, wt peptide can compete with SALL4 and release it from recruiting HDAC complex NuRD, the wt peptide would likely work as a HDAC inhibitor. Therefore, as a positive control, TSA, a broad HDAC inhibitor, was used in the same group of experiments along with the wt and Scr peptide.
Multiple leukemic and solid tumor cancer cell lines with high or low/no SALL4 expression (FIG. 10A) were chosen to test the biological effect(s) of the wild type peptide. Wild type or scrambled peptide was delivered into tumor cells at various concentrations, and their effects on cells were evaluated 72 hours post-treatment by the MTS cell viability assay. […] The effect of wild type peptide is SALL4-specific, as it had no effect on KBM5, an AML cell line with undetectable endogenous SALL4 expression. […] Therefore, expression of PTEN was evaluated in AN3CA cells along with other cell lines. […]

HuH-7 cells = assay: Cell viability assay (MTT/MTS); assay type: cell-based, human; conditions: HuH-7, 72 h
Experimental: as §2
Multiple leukemic and solid tumor cancer cell lines with high or low/no SALL4 expression (FIG. 10A) were chosen to test the biological effect(s) of the wild type peptide. Wild type or scrambled peptide was delivered into tumor cells at various concentrations, and their effects on cells were evaluated 72 hours post-treatment by the MTS cell viability assay. […] The effect of wild type peptide is SALL4-specific, as it had no effect on KBM5, an AML cell line with undetectable endogenous SALL4 expression. We were surprised to see that the wild type peptide had no effect on a high SALL4-expressing endometrioid cancer cell line, AN3CA. This prompted checking whether PTEN, a gene repressed by SALL4 through its interaction with NuRD 27, was present in this cell line. According to the model herein, the function of wild type peptide requires both the expression of SALL4 and intact SALL4 downstream target genes, such as PTEN. In tumor cells with PTEN deletion, even though wild type peptide could compete with endogenous SALL4 in interacting with the HDAC complex, an anti-proliferative effect might not be observed. Therefore, expression of PTEN was evaluated in AN3CA cells along with other cell lines. […]
7000 cells were seeded in each wells of a microtiter plate in 100 μL of complete medium. […] After four hours incubation of the tetrazolium salt, absorbance at 490 nm was read by a microplate reader.

SNU-398 cells = assay: Subcutaneous transplantation of peptide pre-treated SNU-398 cells into NOD/SCID mice; assay type: in vivo; conditions: for subcutaneous tumor volume / size: cells treated in vitro with 20 μM peptide
Experimental: as §1
To test the therapeutic effect of this peptide in vivo, SNU-398 cells were subjected to in vitro treatment with 20 μM of wt or Scr. peptide and transplanted the peptide-treated cells subcutaneously into the flanks of NOD/SCID mice.

Row | Substance | cell viability upon SALL4 knockdown (SNU-387 cells; SNU-387, MTS) | cell viability (HL-60 cells) | cell viability (HL-60 cells; listed as WT) | cell viability (HL-60 cells; listed as wild type peptide) | cell viability (HuH-7 cells) | cell viability (HuH-7 cells; listed as wild type peptide) | cell viability / number of viable cells (SNU-387 cells) | cell viability / number of viable cells (SNU-387 cells; listed as SALL4 peptide) | cell viability / number of viable cells (SNU-387 cells; listed as wt) | subcutaneous tumor volume / size (SNU-398 cells) | tumor burden (weight post-dissection) (SNU-398 cells; day 26)
1 | CTATTTAGCCAAAGGCAAA (short hairpin RNA, chemistry and delivery not given here, further chemistry not given here) [E5 shRNA] | number of viable cells was similar |  |  |  |  |  |  |  |  |  | 
2 | H-MSRRKQAKPQHI-OH [wt peptide, MSRRKQAKPQHI] |  | decreased cell viability | decrease in cell viability | decreased cell viability; also recorded: reduces the number of the living cells | reduced the cell viability | decreased cell viability | had no effects; also recorded: did not affect the cell viability | had no effect | no change in cell viability | significantly reduced | the tumor load was reduced
3 | Scr peptide: same 12 amino acids as the wt peptide, but in a scrambled sequence; negative control (SRMRQKIHPKIQ) [reference compound] |  | remained unaffected |  |  | remained unaffected |  | no change in cell viability |  |  | grew into larger subcutaneous tumors | 
